Results as given in patent publication US20130034522A1, “THERAPIES FOR TREATING HEPATITIS C VIRUS INFECTION” (priority 2010, published 2013).
Where “and” joins values, the source holds several entries; their conditions need not be identical. Equal values may be shown once.

Tested on: Huh-7, ET replicon cells
Assay: Drug combination luciferase assay (4-day, MacSynergy)
Format: cell-based, Hepatitis C virus
Details: combination with VX-950, 4 days
Text: Replicon cell lines Huh-7, ET cells derived from the Huh-7 hepatocarcinoma cell line are obtained from Dr. Ralf Bartenschlager (Bartenschlager, R. Innovation: Hepatitis C virus replicons: potential role for drug development. Nat. Rev. Drug Discov. 2002, 1, 911-916. Krieger, N.; Lohmann, V.; Bartenschlager, R. Enhancement of hepatitis C virus RNA replication by cell culture-adaptive mutations. J. Virol. 2001, 75, 4614-4624. Lohmann, V.; Korner, F.; Koch, J.-O.; Herian, U.; Theilmann, L.; Bartenschlager, R. Replication of subgenomic hepatitis C virus RNAs in a hepatoma cell line. Science. 1999, 285, 110-113.) (Reblikon GmbH, Gau-Odernheim, Germany). […]
Huh-7, ET replicon cells are seeded in white opaque 96-well cell culture microtiter plates at sub-confluent density (3×10^3 cells per well) in a volume of 100 μL media. […] Plates are read for Luciferase counts using a luminometer (Wallac MicroBeta Trilux, Perkin Elmer™, MA, USA). […]

Compound: CC1CCC(C(=O)N(c2cc(C#CC(C)(C)C)sc2C(=O)O)C2CCC(O)CC2)CC1 (stereo not drawn) [VX-222, 5-(3,3-Dimethylbut-1-ynyl)-3-[(trans-4-hydroxycyclohexyl)-(4-trans methylcyclohexanecarbonyl)amino]thiophene-2-carboxylic acid]
- Results VX-950 (synergy class): Moderated synergy (50 uM^2%-100 uM^2%)
- volume of synergy (listed as 1): 90 uM^2% and 86 uM^2%
